Laboratory results from ChEMBL document CHEMBL1201862, “PubChem BioAssay data set” (2004).
One block for each molecule: values may come before it. Activity calls are given as the source filed them.

Columns and labels:
[1] = tested on: Staphylococcus aureus; test: Inhibitors of Bacterial Quorum Sensing Structure Activity Relationship (SAR) Analysis: Dose Response Assay. [Related pubchem assays: 700, 527 ]; type: functional, organism-based
[2] = target: Aspartyl aminopeptidase (Plasmodium falciparum 3D7, UniProt Q8I2J3)
[3] = target: Procathepsin L (Homo sapiens, UniProt P07711)
[4] = target: T1, Mannose-6-phosphate isomerase (Homo sapiens, UniProt P34949); test: MPI enzyme activity inhibition – biochemical, fluorescence intensity, coupled assay, primary screen (AID 1209)
T1 sequence (P34949 whole entry): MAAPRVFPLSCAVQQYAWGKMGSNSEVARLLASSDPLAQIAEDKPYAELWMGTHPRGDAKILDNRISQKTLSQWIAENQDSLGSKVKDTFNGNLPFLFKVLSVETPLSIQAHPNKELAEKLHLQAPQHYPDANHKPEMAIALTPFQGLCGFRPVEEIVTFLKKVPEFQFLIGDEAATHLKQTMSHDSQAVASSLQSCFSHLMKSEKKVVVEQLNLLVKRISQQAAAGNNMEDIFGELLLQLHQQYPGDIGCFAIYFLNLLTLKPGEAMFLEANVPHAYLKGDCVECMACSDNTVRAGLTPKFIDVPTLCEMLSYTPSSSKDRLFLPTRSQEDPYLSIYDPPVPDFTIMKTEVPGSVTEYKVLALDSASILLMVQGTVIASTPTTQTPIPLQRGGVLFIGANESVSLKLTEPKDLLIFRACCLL

[5] = target: T1, Mannose-6-phosphate isomerase; test: MPI inhibition at elevated mannose 6-phosphate – biochemical, fluorescence intensity, high mannose 6-phosphate, primary screen (AID 1220)
[6] = target: T2, Alkaline phosphatase, tissue-nonspecific isozyme (Homo sapiens, UniProt P05186)
T2 sequence (P05186 whole entry): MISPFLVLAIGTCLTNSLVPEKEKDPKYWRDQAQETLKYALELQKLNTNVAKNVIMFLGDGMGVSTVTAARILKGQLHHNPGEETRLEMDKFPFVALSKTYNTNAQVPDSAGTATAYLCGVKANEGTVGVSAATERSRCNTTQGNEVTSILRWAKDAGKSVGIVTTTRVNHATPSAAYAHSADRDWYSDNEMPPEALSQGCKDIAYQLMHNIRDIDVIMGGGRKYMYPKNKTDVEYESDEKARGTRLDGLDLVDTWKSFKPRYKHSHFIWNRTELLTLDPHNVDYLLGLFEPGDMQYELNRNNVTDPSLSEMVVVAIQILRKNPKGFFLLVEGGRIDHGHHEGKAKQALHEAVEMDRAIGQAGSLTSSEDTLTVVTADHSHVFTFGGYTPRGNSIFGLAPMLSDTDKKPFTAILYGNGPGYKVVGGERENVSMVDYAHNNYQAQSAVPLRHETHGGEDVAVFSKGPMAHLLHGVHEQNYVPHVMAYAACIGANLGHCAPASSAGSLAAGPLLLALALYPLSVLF

[7] = target: T3, Neuropeptide Y receptor type 2 (Homo sapiens, UniProt P49146); test: Fluorescence counterscreen for potentiators or agonists of NPY-Y1: Cell-based high-throughput dose response assay for potentiators or agonists of NPY-Y2.; type: functional
T3 sequence (P49146 whole entry): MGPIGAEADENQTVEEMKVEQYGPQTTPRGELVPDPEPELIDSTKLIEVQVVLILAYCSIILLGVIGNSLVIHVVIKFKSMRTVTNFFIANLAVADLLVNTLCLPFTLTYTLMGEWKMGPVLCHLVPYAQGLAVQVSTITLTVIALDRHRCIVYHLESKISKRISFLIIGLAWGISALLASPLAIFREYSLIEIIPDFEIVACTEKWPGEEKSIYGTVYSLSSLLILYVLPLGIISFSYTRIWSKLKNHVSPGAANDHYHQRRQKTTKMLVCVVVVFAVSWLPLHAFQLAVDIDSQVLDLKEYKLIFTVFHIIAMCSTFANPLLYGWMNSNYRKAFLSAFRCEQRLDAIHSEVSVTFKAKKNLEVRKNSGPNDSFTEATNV

[8] = target: T3, Neuropeptide Y receptor type 2; test: Fluorescence-based counterscreen for agonists of NPY-Y1: cell-based high-throughput dose response assay for agonists of NPY-Y2.; type: functional
[9] = tested on: HEK293; test: Fluorescence-based counterscreen for potentiators or agonists of NPY-Y1: cell-based high-throughput dose response assay for inhibitors of cyclic nucleotide gated ion channel (CNGC) activity. In this assay, the parental HEK293 cell line transfected with a cyclic-nucleotide gated ion channel (CNGC)-based cAMP sensor is used to measure inhibition of isoproterenol-induced CNGC …; type: functional; conditions: Homo sapiens
[10] = target: T4, Neuropeptide Y receptor type 1 (Homo sapiens, UniProt P25929); test: Fluorescence-based dose response cell-based high-throughput screening assay for potentiators or agonists of NPY-Y1.; type: functional
T4 sequence (P25929 whole entry): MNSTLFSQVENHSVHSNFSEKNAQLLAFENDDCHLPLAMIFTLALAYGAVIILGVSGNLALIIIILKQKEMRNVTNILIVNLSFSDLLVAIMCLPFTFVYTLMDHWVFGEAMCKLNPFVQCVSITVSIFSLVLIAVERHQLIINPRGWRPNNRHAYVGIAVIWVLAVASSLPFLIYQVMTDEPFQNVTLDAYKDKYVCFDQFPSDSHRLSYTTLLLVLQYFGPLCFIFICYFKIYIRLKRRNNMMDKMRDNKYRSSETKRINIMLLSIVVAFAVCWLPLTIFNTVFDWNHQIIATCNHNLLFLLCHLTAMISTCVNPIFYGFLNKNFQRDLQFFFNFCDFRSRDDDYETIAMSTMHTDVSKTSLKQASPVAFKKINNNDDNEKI

[11] = target: T4, Neuropeptide Y receptor type 1; test: Fluorescence-based dose response cell-based high-throughput screening assay for agonists of NPY-Y1. [Related pubchem assays: 1697 (Screening assay (NPY-Y1 agonists).), 1359 (Screening assay (NPY-Y2 potentiators or agonists).), 1304 (Screening assay (NPY-Y1 potentiators or agonists).), 1704 (Screening assay (CNGC inhibitors).), 1791 (Summary AID.)]; type: functional
[12] = target: T5, Rac GTPase-activating protein 1 (Homo sapiens, UniProt Q9H0H5); test: blockers of MgcRacGAP-driven Rac1 GTP hydrolysis – biochemical, ADP Hunter fluorescence, primary and confirmatory, confirmation (AID 624330); type: functional
T5 sequence (Q9H0H5 whole entry): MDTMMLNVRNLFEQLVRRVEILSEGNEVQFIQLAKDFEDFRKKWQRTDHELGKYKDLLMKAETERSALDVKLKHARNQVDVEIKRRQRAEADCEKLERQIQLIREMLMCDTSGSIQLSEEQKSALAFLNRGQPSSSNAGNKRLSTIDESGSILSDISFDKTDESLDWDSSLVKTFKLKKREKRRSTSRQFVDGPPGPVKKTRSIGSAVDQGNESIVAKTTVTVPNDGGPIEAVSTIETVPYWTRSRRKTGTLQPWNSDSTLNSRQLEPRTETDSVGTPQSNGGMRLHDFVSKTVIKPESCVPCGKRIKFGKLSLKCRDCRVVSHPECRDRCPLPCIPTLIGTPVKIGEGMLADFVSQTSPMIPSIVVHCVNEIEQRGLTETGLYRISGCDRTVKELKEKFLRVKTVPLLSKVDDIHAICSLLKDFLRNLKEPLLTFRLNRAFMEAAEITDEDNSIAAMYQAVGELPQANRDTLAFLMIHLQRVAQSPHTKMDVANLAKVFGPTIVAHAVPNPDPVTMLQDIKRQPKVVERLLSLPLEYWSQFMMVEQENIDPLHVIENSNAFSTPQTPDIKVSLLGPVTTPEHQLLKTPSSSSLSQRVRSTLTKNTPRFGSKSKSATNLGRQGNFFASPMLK

Sequence of Aspartyl aminopeptidase (Q8I2J3 whole entry): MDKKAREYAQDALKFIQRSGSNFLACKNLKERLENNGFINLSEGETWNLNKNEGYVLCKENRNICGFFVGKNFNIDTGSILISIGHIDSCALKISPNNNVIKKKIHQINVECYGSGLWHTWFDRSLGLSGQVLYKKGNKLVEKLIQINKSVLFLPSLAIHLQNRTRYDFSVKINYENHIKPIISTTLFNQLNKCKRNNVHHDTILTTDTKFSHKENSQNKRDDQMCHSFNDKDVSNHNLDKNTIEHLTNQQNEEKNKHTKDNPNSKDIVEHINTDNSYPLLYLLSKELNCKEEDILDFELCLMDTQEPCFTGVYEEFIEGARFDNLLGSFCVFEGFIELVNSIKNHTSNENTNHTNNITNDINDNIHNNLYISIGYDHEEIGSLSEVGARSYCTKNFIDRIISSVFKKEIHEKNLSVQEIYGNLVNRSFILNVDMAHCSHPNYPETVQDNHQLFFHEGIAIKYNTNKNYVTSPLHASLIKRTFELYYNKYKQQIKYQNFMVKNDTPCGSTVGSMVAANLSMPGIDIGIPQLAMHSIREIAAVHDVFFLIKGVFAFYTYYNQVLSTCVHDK
Sequence of Procathepsin L (P07711 whole entry): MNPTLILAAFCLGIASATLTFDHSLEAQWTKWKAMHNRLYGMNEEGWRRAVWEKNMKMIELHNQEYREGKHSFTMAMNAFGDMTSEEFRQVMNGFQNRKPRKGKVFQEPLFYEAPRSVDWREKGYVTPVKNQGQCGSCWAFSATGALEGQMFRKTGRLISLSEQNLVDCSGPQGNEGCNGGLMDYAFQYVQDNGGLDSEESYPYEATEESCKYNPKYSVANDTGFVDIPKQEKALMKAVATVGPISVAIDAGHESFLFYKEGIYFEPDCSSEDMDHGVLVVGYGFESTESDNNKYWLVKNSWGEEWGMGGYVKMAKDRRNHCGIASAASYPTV

SMILES: CC1CCN(C(C(=O)Nc2ccc(C(C)C)cc2)c2ccc3c(c2)OCO3)CC1 (configuration not stated)
IC50 [1]: 0.717 µM (active)

IC50 [2]: 5.07 µM (active) | IC50 [3]: > 59.6 µM (not active) | IC50 [4]: > 50 µM (not active) | IC50 [5]: > 50 µM (not active)
SMILES: CCOC(=O)NC1(Nc2ccc(C)cc2)Oc2ccccc2O1

EC50 [6]: > 100 µM (not active)
SMILES: O=C1CC(N2CCN(c3cccc(C(F)(F)F)c3)CC2)C(=O)N1c1ccc(F)cc1 (configuration not stated)

SMILES: CCOC(=O)C(Cc1ccccc1)C(=O)Nc1ccc(N(CC)CC)cc1 (configuration not stated)
EC50 [7]: 23.9 µM (not active) | EC50 [8]: 12.4 µM (not active) | IC50 [9]: 18.4 µM (not active) | EC50 [10]: 5.4 µM (active) | EC50 [11]: 7.05 µM (active) | IC50 [12]: 93.1 µM (active)
